Laboratory results reported in publication PMC6751662, “Pharmacological and functional similarities of the human neuropeptide Y system in C. elegans challenges phylogenetic views on the FLP/NPR system” (Cell Communication and Signaling : CCS, 2019).

What was measured:
Format in all cases: cell-based, C. elegans
NPR-3 = target: T1, NPR-3 (Caenorhabditis elegans, UniProt P90745); test: cAMP reporter gene assay, Gs (no forskolin), NPR-3; settings: no forskolin, 4 h, transiently transfected HEK293, CRE-luciferase reporter, mean of >=3 independent experiments
T1 construct: expressed in transfected cells; host or cells: HEK293
T1 sequence (P90745 1-376): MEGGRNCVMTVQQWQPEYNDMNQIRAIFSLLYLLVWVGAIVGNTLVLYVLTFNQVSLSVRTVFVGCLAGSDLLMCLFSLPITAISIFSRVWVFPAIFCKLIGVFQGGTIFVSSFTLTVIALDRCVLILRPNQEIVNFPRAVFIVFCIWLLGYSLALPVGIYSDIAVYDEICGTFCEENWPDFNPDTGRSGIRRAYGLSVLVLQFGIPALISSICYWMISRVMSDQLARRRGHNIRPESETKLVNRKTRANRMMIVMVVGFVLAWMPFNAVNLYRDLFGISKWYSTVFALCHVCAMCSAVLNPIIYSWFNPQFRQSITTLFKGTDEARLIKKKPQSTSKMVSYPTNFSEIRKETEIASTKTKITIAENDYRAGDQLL
Experimental: (§1) Activation of Gs and Gi/o was assessed with a cAMP reporter gene assay. HEK293 cells grown to 70–80% confluency in 6-well plates were transiently co-transfected with vectors encoding the receptor and the cAMP reporter gene plasmid pGL4.29 [luc2P/CRE/Hygro] (Promega; 4 μg total, 1:1 ratio) using Metafectene Pro (3 μl/μg DNA; Biontex) following the manufacturer’s instructions. 16 h post transfection, the cells were seeded into white 384-well plates at a density of 20,000 cells/well. On the next day, the medium was removed and the cells were stimulated with 20 μl of peptide solution (or forskolin as positive control) in serum-free DMEM for 4 h. For measuring Gi/o activity, the peptide solutions additionally contained 1 μM forskolin to elevate cellular cAMP levels. After incubation, the luciferase substrate OneGlo in lysis buffer (Promega) was added and the luminescence was measured in a microplate reader Tecan Spark (Tecan). Data were analyzed with GraphPad Prism 5.03 and are shown as fold of basal or fold of forskolin in case of Gαi/o activity.
(§2) For in vitro activation, data is presented as mean ± SEM of at least three independent experiments conducted in technical triplicate. […] For the C. elegans NPRs, we considered the strongest response elicited by any of the peptides downstream of a particular receptor as the receptor’s maximal signal. This may or may not be the biological maximum that can be reached by the ‘true’ endogenous agonist. For the human receptors, the response to the established endogenous agonist reflected the maximal signal.

NPR-4b [1] = target: T2, NPR-4b (Caenorhabditis elegans, UniProt A0A078BTK0); test: cAMP reporter gene assay, Gs (no forskolin), NPR-4b; settings: no forskolin, 4 h, transiently transfected HEK293, CRE-luciferase reporter, mean of >=3 independent experiments
T2 sequence (A0A078BTK0 1-376): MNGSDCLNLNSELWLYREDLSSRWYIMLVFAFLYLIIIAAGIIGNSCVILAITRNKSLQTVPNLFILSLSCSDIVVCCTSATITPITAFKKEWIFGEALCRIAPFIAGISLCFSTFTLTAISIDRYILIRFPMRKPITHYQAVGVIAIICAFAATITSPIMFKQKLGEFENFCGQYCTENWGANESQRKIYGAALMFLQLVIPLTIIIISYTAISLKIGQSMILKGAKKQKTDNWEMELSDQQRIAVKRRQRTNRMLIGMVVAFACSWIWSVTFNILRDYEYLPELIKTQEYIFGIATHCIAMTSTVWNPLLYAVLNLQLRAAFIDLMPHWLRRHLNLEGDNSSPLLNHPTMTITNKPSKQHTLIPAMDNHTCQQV
Experimental: as §1, §2

NPR-6 [2] = test: cAMP reporter gene assay, Gs (no forskolin), NPR-6; settings: no forskolin, 4 h, transiently transfected HEK293, CRE-luciferase reporter, mean of >=3 independent experiments
Experimental: as §1, §2

NPR-11 = target: T3, NPR-11 (Caenorhabditis elegans, UniProt Q18179); test: cAMP reporter gene assay, Gs (no forskolin), NPR-11; settings: no forskolin, 4 h, transiently transfected HEK293, CRE-luciferase reporter, mean of >=3 independent experiments
T3 construct: expressed in transfected cells; host or cells: HEK293, transient
T3 sequence (Q18179 1-402): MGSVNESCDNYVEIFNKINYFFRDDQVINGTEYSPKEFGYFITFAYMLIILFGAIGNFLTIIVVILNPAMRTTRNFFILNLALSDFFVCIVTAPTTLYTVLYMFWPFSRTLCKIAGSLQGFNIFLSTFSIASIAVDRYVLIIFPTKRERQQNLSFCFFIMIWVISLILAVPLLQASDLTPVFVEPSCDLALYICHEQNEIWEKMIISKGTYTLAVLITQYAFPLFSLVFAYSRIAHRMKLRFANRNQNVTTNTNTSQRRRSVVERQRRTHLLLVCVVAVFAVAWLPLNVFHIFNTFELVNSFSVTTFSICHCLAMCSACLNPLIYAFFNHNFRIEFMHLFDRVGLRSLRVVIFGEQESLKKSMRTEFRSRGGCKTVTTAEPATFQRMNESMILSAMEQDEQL
Experimental: as §1, §2

NPR-6 [3] = test: IP accumulation assay, endogenous Gαq + mock, NPR-6; settings: 1 h, HBSS + 20 mM LiCl, HEK293 receptor + empty vector, HTRF IP-One, mean of >=3 independent experiments
Experimental: (§3) For measuring IP accumulation, HEK293 cells grown to 70–80% confluency in 6-well plates were transiently co-transfected using Metafectene Pro (2.5 μl/μg DNA; Biontex) with plasmids containing receptor and/or mock (empty pcDNA3.1) (for endogenous Gq-coupling) using 4 μg total DNA in a ratio of 3:1 following the manufacturer’s instructions. For testing Gα16- and GαΔ6qi4myr-coupling, plasmids encoding the corresponding Gα protein were co-transfected instead of mock. Gα16 is naturally promiscuous and stimulates the phospholipase C (PLC) pathway leading to IP production, while the exchange of the C-terminal four amino acids of Gαq for the corresponding residues of Gαi1 in the chimeric GαΔ6qi4myr confers the ability to couple to Gi/o protein-preferring receptors but still stimulate PLC, thus specifically redirecting downstream cellular signaling. 16 h post transfection, the cells were seeded into white 384-well plates at a density of 20,000 cells/well. Media was removed 24 h later and the cells were incubated with the indicated concentration of peptides for 1 h in HBSS + 20 mM LiCl. IP accumulation was measured with the HTRF-based IP-One Gq kit (Cisbio) on a microplate reader (Tecan Spark).
(§4) For in vitro activation, data is presented as mean ± SEM of at least three independent experiments conducted in technical triplicate. […]

NPR-4b [4] = target: T2, NPR-4b; test: IP accumulation assay, co-transfected Gα16, NPR-4b; settings: 1 h, HBSS + 20 mM LiCl, HEK293 receptor + Gα16, HTRF IP-One, mean of >=3 independent experiments
Experimental: as §3, §4

NPR-6 [5] = test: IP accumulation assay, co-transfected Gα16, NPR-6; settings: 1 h, HBSS + 20 mM LiCl, HEK293 receptor + Gα16, HTRF IP-One, mean of >=3 independent experiments
Experimental: as §3, §4

[6] = 0.1 nM peptide (so in the source)

cAMP assay Gs, NPR-3 (NPR-3; 0.1 µM peptide): 0.86 x-fold of basal | cAMP assay Gs, NPR-3 (NPR-3; 10 µM peptide): 0.85 x-fold of basal | cAMP assay Gs, NPR-4b (NPR-4b [1]; 0.1 µM peptide): 0.89 x-fold of basal | cAMP assay Gs, NPR-4b (NPR-4b [1]; 10 µM peptide): 0.92 x-fold of basal | cAMP assay Gs, NPR-11 (NPR-11; 0.1 µM peptide): 0.70 x-fold of basal | cAMP assay Gs, NPR-11 (NPR-11; 10 µM peptide): 0.69 x-fold of basal | IP assay endog. Gαq + Gα16, NPR-4b (NPR-4b [4]; [6]): 1.04 x-fold of basal | IP assay endog. Gαq + Gα16, NPR-4b (NPR-4b [4]; 10 µM peptide): 0.84 x-fold of basal
Substance: APKPKFIRF-NH2 [FLP-5-1, C. elegans FMRFamide-like peptide, C-terminally amidated, synthesized by SPPS]
cAMP assay Gs, NPR-6 (NPR-6 [2]; 0.1 µM peptide): 0.68 x-fold of basal | cAMP assay Gs, NPR-6 (NPR-6 [2]; 10 µM peptide): 0.57 x-fold of basal | IP assay endog. Gαq + mock, NPR-6 (NPR-6 [3]; [6]): 0.92 x-fold of basal | IP assay endog. Gαq + mock, NPR-6 (NPR-6 [3]; 10 µM peptide): 0.95 x-fold of basal | IP assay endog. Gαq + Gα16, NPR-6 (NPR-6 [5]; [6]): 1.01 x-fold of basal | IP assay endog. Gαq + Gα16, NPR-6 (NPR-6 [5]; 10 µM peptide): 0.96 x-fold of basal
